# Measured values as given in the supplement of paper PMC10307832.
# Legend:
# Experiment in all cases: relative viability (nuclei count vs DMSO), 5 days (fraction); higher = more cells survive
# AZ3146 + Crizotinib = compound: CN1CCC(CC1)OC2=CC(=C(C=C2)NC3=NC=C4C(=N3)N(C(=O)N4C)C5CCCC5)OC [AZ3146] + C[C@@H](Oc1cc(-c2cnn(C3CCNCC3)c2)cnc1N)c1c(Cl)ccc(F)c1Cl [Crizotinib] (partner 1 µM)
# Outline: (§1)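 A single step with final 0.05% Triton X-100, 1% formaldehyde and 1 ug/ml Hoechst fixed the cells and stained nuclei 5 days after treatment. Lung cancer cell lines in 1536-well plates had been treated by pin tool the day after seeding with one drug alone or a fixed anchor-drug dose plus five library-drug doses (not always all listed) in √10 steps, and nuclei were counted on 4× images. Relative viability is the ratio of nuclei in treated wells to nuclei in vehicle wells, taken as the median of duplicate plates.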
# GSK-J4 + Tozasertib = compound: CCOC(=O)CCNc1cc(N2CCc3ccccc3CC2)nc(-c2ccccn2)n1 [GSK-J4] + Cc1cc(Nc2cc(N3CCN(C)CC3)nc(Sc3ccc(NC(=O)C4CC4)cc3)n2)n[nH]1 [Tozasertib] (partner 0.1 µM)
# Outline: as §1
# AZ3146 + Pemetrexed = compound: CN1CCC(CC1)OC2=CC(=C(C=C2)NC3=NC=C4C(=N3)N(C(=O)N4C)C5CCCC5)OC [AZ3146] + Nc1nc2[nH]cc(CCc3ccc(C(=O)N[C@@H](CCC(=O)O)C(=O)O)cc3)c2c(=O)[nH]1 [Pemetrexed] (partner 0.2 µM)
# Outline: as §1
# AZ3146 + Navitoclax = compound: CN1CCC(CC1)OC2=CC(=C(C=C2)NC3=NC=C4C(=N3)N(C(=O)N4C)C5CCCC5)OC [AZ3146] + CC1(C)CCC(c2ccc(Cl)cc2)=C(CN2CCN(c3ccc(C(=O)NS(=O)(=O)c4ccc(N[C@H](CCN5CCOCC5)CSc5ccccc5)c(S(=O)(=O)C(F)(F)F)c4)cc3)CC2)C1 [Navitoclax] (partner 0.5 µM)
# Outline: as §1
Cell Line,relative viability (AZ3146 + Crizotinib; first compound 0.08 µM),relative viability (AZ3146 + Crizotinib; first compound 0.253 µM),relative viability (AZ3146 + Crizotinib; first compound 0.8 µM),relative viability (AZ3146 + Crizotinib; first compound 2.53 µM),relative viability (AZ3146 + Crizotinib; first compound 8 µM),relative viability (GSK-J4 + Tozasertib; first compound 0.5 µM),relative viability (GSK-J4 + Tozasertib; first compound 1.581 µM),relative viability (GSK-J4 + Tozasertib; first compound 5 µM),relative viability (GSK-J4 + Tozasertib; first compound 15.81 µM),relative viability (GSK-J4 + Tozasertib; first compound 50 µM),relative viability (AZ3146 + Pemetrexed; first compound 0.08 µM),relative viability (AZ3146 + Pemetrexed; first compound 0.253 µM),relative viability (AZ3146 + Pemetrexed; first compound 0.8 µM),relative viability (AZ3146 + Pemetrexed; first compound 2.53 µM),relative viability (AZ3146 + Pemetrexed; first compound 8 µM),relative viability (AZ3146 + Navitoclax; first compound 0.08 µM),relative viability (AZ3146 + Navitoclax; first compound 0.253 µM),relative viability (AZ3146 + Navitoclax; first compound 0.8 µM),relative viability (AZ3146 + Navitoclax; first compound 2.53 µM),relative viability (AZ3146 + Navitoclax; first compound 8 µM)
NCI-H596,1.02,0.947,1.02,1.02,1.01,0.953,0.891,0.971,0.847,0.691,0.478,0.449,0.574,0.486,0.556,1.02,0.884,0.9,0.95,0.929
NCI-H838,0.797,0.798,0.656,0.613,0.281,0.299,0.26,–,0.26,0.21,0.233,0.239,0.283,0.269,0.211,1.12,1.19,1.17,1.13,0.93
NCI-H1355,1.07,1.04,1.1,1.04,1.08,0.517,0.517,0.575,0.439,0.437,1.02,1.02,1.03,1.12,1.13,0.974,0.872,1.04,0.922,1.01
HARA,0.983,1.03,1.03,0.72,0.206,0.124,–,–,0.103,0.117,0.22,0.257,0.245,0.217,0.231,1.13,1.08,1.13,1.13,1.11
201T,1.02,1.03,1,1.06,1.02,0.801,0.971,0.96,0.901,0.836,0.275,0.328,0.32,0.331,0.303,1.19,1.2,1.16,1.27,1.2
NCI-H23,0.398,0.515,0.516,0.425,0.305,0.333,0.397,0.373,0.281,0.249,0.789,0.645,0.857,0.787,0.45,0.751,0.687,0.786,0.86,0.993
LC-2-ad,0.365,0.511,0.481,0.494,0.321,0.429,0.377,0.41,0.399,0.36,0.245,0.29,0.271,0.262,0.259,0.425,0.385,0.649,0.519,0.685
COR-L 105,0.756,0.745,0.508,0.518,0.332,0.311,0.371,0.36,0.394,0.387,1.19,1.22,0.962,0.645,0.799,0.805,0.712,0.745,0.791,0.711
NCI-H647,0.983,1.12,0.978,0.763,0.201,0.315,0.192,0.178,0.28,0.155,0.22,0.178,0.188,0.204,0.115,1.06,1.07,1.16,1.1,0.893
NCI-H1915,0.878,0.905,0.852,0.896,0.82,0.404,0.395,–,0.409,0.337,0.502,0.517,0.602,0.511,0.49,0.783,0.807,0.807,0.816,0.814
NCI-H2087,0.906,0.875,0.843,0.795,0.376,0.265,–,0.281,0.217,0.251,0.648,0.683,0.684,0.67,0.661,1.04,1.06,1.08,1.05,0.968
NCI-H2085,0.837,0.998,0.933,0.824,0.658,0.765,0.733,0.756,0.806,0.652,0.923,0.824,0.869,0.887,0.705,1.03,1.14,1.06,1.08,1.03
